In ChEMBL document CHEMBL5620375, “Tetrahydrobenzo[h]quinoline derivatives as a novel chemotype for dual antileishmanial-antimalarial activity graced with antitubercular activity: Design, synthesis and biological evaluation” (Eur J Med Chem, 2023):
Values after ≈ are worked out from the molar mass of the structure shown.

Tested on: Mycobacterium tuberculosis
Experiment: Antitubercular activity against multidrug-resistant Mycobacterium tuberculosis ATCC 35822 assessed as inhibition of bacterial growth by microplate alamar blue assay
Assay type: functional

SMILES | MIC
COc1ccc(OC)c(-c2c3c([nH]c(=O)c2C#N)-c2ccccc2CC3)c1 | 21.8 µM (≈ 7.82 µg/mL)
N#Cc1c(-c2ccc(Cl)cc2Cl)c2c([nH]c1=O)-c1ccccc1CC2 | 85.4 µM (≈ 31.4 µg/mL)
COc1ccc(-c2c3c([nH]c(=O)c2C#N)-c2ccccc2CC3)cc1O | 45.4 µM (≈ 15.6 µg/mL)
COc1ccccc1-c1c2c([nH]c(=O)c1C#N)-c1ccccc1CC2 | 11.9 µM (≈ 3.9 µg/mL)
N#Cc1c(O)nc2c(c1-c1cccc([N+](=O)[O-])c1)CCc1ccccc1-2 | 22.8 µM (≈ 7.82 µg/mL)
